The record followed here is article PMC5862592, “CDK8/19 inhibition induces premature G1/S transition and ATR-dependent cell death in prostate cancer cells” (Oncotarget, 2018).

Like-named read-outs stand apart in the source and are kept apart here.

Common to all, as to assay: biochemical
What all share (design): KINOMEscan active site-directed competition binding assay (DiscoveRx), 456 kinases, per cent of control at 300 nM
What all share (conditions): read-out: Percent of Control (%)

For experiment [1], the target named is T1, ABL1(T315I)-nonphosphorylated (Homo sapiens, UniProt P00519, T315I).
T1 construct: nonphosphorylated
The procedure, abridged: (§1)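 Active site-directed competition binding (KINOMEscan) across a 456-kinase panel, compounds tested at 300 nmol/L.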

For experiment [2], the target named is T2, CDC2L5 (Homo sapiens, UniProt Q14004).
T2 construct: gene CDK13
The procedure, abridged:
as §1

The target in experiment [3] is T3, CDK11 (Homo sapiens, UniProt Q9BWU1).
T3 construct: gene CDK19
T3 sequence (Q9BWU1 whole entry): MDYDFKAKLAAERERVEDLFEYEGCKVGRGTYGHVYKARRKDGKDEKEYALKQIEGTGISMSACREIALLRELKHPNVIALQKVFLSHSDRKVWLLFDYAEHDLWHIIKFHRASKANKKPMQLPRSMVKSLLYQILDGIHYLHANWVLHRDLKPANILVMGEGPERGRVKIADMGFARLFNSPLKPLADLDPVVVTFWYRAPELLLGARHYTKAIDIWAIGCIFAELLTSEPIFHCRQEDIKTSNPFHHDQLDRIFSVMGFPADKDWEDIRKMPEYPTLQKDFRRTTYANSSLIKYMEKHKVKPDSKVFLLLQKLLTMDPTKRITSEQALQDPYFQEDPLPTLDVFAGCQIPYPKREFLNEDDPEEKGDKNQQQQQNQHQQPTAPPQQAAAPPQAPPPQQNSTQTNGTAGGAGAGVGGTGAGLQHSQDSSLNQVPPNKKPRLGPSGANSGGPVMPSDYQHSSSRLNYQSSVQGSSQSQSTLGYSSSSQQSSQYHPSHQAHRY
The procedure, abridged:
as §1

Experiment [4] deals with DAPK3 (Homo sapiens, UniProt O43293). The procedure, abridged:
as §1

Experiment [5] concerns the target EGFR(L858R) (Homo sapiens, UniProt P00533, L858R). The procedure, abridged:
as §1

Experiment [6] has as its target EPHA3 (Homo sapiens, UniProt P29320). The procedure, abridged: as §1
Experiment [7] deals with ERN1 (Homo sapiens, UniProt O75460). The procedure, abridged: as §1
Sequence of ERN1 (O75460 whole entry): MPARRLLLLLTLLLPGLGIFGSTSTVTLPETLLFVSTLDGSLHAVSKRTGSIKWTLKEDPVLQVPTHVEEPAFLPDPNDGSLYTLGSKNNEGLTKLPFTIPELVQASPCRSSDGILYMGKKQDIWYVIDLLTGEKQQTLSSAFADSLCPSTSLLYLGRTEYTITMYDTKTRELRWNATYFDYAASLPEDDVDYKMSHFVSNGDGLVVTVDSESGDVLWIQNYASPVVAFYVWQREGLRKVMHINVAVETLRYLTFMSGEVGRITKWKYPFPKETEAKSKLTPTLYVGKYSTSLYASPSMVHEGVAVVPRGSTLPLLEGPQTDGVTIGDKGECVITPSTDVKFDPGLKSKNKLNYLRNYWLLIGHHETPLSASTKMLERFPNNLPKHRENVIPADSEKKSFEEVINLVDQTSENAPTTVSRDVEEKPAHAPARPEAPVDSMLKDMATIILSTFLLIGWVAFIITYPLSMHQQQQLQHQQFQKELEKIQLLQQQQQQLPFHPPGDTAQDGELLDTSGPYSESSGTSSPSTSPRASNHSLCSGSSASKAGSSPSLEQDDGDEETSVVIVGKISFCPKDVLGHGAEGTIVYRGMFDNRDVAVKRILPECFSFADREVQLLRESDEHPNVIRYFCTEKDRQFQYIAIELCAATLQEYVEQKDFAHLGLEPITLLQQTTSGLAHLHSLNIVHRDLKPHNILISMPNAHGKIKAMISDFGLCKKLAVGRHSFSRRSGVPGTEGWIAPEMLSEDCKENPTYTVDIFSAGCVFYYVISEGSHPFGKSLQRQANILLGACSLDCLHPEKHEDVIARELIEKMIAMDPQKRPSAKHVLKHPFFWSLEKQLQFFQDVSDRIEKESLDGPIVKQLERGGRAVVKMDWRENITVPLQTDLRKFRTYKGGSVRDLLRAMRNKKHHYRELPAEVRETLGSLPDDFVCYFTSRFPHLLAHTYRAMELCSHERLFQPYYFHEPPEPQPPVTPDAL
Experiment [8] has as its target FES (Homo sapiens, UniProt P07332). The procedure, abridged:
as §1

Experiment [9] addresses HIPK3 (Homo sapiens, UniProt Q9H422). The procedure, abridged:
as §1

Experiment [10] concerns the target INSRR (Homo sapiens, UniProt P14616). The procedure, abridged:
as §1

In experiment [11] the target is T4, JAK3(JH1domain-catalytic) (Homo sapiens, UniProt P52333).
T4 construct: JH1domain-catalytic
The procedure, abridged: as §1

In experiment [12] the target is KIT(A829P) (Homo sapiens, UniProt P10721, A829P). The procedure, abridged: as §1
The target in experiment [13] is LATS1 (Homo sapiens, UniProt O95835). The procedure, abridged:
as §1

Experiment [14] deals with MAPKAPK2 (Homo sapiens, UniProt P49137). The procedure, abridged: as §1
Sequence of MAPKAPK2 (P49137 whole entry): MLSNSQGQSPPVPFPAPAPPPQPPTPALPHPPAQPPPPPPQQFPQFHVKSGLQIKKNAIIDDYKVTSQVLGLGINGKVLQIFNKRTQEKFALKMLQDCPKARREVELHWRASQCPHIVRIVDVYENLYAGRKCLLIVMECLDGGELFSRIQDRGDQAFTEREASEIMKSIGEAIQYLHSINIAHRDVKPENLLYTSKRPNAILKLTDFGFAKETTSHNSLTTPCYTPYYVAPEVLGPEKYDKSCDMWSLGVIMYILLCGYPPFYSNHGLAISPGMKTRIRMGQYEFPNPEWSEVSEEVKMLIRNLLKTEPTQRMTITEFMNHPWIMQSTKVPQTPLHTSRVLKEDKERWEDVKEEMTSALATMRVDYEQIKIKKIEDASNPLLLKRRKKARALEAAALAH
Experiment [15] deals with MET(M1250T) (Homo sapiens, UniProt P08581, M1250T). The procedure, abridged: as §1
Experiment [16] addresses T5, MRCKB (Homo sapiens, UniProt Q9Y5S2).
T5 construct: gene CDC42BPB
The procedure, abridged: as §1

The target in experiment [17] is MYLK (Homo sapiens, UniProt Q15746). The procedure, abridged: as §1
For experiment [18], the target named is T6, PCTK3 (Homo sapiens, UniProt Q07002).
T6 construct: gene CDK18
The procedure, abridged:
as §1

The target in experiment [19] is PIK3CB (Homo sapiens, UniProt P42338). The procedure, abridged:
as §1

For experiment [20], the target named is PRKG1 (Homo sapiens, UniProt Q13976). The procedure, abridged:
as §1

Experiment [21] has as its target T7, RSK4(Kin.Dom.1-N-terminal) (Homo sapiens, UniProt Q9UK32).
T7 construct: gene RPS6KA6; Kin.Dom.1-N-terminal
The procedure, abridged: as §1

Sequence of INSRR (P14616 whole entry): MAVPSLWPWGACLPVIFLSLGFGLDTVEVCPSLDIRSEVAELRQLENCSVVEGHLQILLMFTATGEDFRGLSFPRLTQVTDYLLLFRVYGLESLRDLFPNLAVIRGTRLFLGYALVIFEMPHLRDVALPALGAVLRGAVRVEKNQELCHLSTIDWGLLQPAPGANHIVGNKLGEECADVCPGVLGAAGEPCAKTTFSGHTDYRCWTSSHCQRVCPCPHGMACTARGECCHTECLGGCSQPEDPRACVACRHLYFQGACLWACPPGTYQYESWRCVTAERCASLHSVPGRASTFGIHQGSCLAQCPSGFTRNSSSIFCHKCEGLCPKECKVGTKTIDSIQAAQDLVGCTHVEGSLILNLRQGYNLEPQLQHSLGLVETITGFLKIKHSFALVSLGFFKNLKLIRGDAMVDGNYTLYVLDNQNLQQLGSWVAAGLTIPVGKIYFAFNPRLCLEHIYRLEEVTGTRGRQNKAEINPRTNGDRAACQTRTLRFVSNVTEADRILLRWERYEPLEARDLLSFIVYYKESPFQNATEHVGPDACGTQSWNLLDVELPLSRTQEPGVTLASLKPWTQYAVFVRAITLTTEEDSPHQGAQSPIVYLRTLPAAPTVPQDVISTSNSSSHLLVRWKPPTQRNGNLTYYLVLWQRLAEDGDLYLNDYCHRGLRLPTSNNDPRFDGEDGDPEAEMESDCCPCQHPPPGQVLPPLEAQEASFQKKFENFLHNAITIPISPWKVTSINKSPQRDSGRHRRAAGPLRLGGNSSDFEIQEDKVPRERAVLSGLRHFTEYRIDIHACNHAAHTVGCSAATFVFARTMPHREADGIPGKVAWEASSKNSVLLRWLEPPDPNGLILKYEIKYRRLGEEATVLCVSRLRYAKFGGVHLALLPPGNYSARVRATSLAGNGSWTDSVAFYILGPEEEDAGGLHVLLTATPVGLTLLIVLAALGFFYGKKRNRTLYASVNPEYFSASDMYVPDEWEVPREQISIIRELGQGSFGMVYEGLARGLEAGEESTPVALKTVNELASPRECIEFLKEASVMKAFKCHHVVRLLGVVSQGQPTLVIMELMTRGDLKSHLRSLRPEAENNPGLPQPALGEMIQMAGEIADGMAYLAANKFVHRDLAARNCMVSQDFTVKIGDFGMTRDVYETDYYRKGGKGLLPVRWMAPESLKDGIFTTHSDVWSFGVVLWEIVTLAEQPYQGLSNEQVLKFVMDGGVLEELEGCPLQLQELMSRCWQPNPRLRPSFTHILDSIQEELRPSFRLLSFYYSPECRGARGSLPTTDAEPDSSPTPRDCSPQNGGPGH
Sequence of DAPK3 (O43293 whole entry): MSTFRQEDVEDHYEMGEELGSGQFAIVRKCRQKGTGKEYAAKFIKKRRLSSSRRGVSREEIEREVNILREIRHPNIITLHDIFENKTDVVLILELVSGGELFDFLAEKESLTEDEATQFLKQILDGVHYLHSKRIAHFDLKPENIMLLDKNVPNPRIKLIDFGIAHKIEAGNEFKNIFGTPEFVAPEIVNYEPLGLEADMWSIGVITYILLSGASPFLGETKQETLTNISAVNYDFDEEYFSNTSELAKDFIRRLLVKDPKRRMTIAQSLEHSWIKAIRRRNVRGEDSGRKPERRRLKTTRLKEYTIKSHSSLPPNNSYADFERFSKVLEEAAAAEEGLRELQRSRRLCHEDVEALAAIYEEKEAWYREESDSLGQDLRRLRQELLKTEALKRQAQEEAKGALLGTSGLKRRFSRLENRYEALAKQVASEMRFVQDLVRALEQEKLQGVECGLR
Sequence of HIPK3 (Q9H422 whole entry): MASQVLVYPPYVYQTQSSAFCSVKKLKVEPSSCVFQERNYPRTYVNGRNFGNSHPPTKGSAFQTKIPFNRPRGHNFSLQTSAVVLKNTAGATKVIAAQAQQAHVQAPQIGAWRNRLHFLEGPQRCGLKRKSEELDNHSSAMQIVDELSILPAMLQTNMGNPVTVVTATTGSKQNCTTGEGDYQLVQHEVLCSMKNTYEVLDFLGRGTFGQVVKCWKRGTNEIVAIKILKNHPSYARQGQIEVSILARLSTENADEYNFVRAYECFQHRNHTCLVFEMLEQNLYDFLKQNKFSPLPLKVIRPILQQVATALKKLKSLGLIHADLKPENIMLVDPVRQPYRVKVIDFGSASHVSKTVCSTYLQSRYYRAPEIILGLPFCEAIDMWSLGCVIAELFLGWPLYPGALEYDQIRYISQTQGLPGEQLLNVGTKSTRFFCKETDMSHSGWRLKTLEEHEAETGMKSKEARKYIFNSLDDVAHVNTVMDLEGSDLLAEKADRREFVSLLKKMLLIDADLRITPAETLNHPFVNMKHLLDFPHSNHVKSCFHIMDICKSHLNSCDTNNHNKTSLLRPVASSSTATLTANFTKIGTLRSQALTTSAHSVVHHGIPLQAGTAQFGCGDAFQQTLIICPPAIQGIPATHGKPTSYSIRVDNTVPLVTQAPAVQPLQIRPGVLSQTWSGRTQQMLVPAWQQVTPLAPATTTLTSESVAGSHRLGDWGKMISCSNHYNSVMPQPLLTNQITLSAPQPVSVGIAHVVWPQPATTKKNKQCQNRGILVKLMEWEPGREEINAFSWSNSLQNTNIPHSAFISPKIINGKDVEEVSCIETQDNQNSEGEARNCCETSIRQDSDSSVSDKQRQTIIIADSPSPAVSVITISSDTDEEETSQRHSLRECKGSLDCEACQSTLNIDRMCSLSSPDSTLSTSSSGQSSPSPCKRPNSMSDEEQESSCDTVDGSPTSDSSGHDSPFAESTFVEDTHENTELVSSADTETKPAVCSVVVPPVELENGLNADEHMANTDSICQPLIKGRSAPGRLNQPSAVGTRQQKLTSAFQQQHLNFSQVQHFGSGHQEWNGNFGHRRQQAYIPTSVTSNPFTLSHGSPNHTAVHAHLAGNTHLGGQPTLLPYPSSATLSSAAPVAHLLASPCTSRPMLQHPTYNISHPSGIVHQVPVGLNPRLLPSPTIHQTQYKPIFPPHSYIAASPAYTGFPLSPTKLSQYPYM

As for `Cc1ncccc1Oc1sc(C(N)=O)c2c1-c1c(cnn1C)CC2` [T-474, 1-methyl-8-((2-methylpyridin-3-yl)oxy)-4,5-dihydro-1H-thieno[3,4-g]indazole-6-carboxamide], the remaining binding at 0.3 µM in [1] turned out to be 100%; in experiment [2], 86%; in [3], 1.1%; in experiment [4], 100%; in experiment [5], 71%; in [6], 100%. The remaining binding at 0.3 µM worked out at 89% in experiment [7]; 100% in [8]; 79% in experiment [9]; 100% in experiment [10]; 72% in [11]; 99% in [12]. In addition, the remaining binding at 0.3 µM is 67% in [13]; 100% in [14]; 100% in experiment [15]; 100% in [16]; 100% in experiment [17]; 100% in [18]. Besides, the remaining binding at 0.3 µM in experiment [19], in experiment [20] and in [21] was 100% throughout.
As to `O=C(/C=C/c1cnccc1-c1ccc(F)cc1)Nc1ccc(CCc2nnco2)cc1` [T-418, (2E)-3-(4-(4-fluorophenyl)pyridin-3-yl)-N-(4-(2-(1,3,4-oxadiazol-2-yl)ethyl)phenyl)acrylamide], the remaining binding at 0.3 µM worked out at 100% in experiment [1] (sheet T-418); 87% in experiment [2] (sheet T-418); 6.4% in [3] (sheet T-418); 83% in [4] (sheet T-418); 66% in [5] (sheet T-418); 100% in experiment [6] (sheet T-418). The remaining binding at 0.3 µM in [7] (sheet T-418) is 100%; in [8] (sheet T-418) it was 83%; in experiment [9] (sheet T-418) it was 64%; in [10] (sheet T-418), 100%; in experiment [11] (sheet T-418) it was 68%; in [12] (sheet T-418), 100%. Also, the remaining binding at 0.3 µM in [13] (sheet T-418) turned out to be 60%; in experiment [14] (sheet T-418), 100%; in experiment [15] (sheet T-418) it was 97%; in [16] (sheet T-418) it was 100%; in experiment [17] (sheet T-418), 100%; in [18] (sheet T-418), 100%. The remaining binding at 0.3 µM came to 96% in experiment [19] (sheet T-418), 87% in [20] (sheet T-418) and 100% in experiment [21] (sheet T-418).
